Assay results from PMC9784969, “SARS-CoV-2 Inhibitors Identified by Phenotypic Analysis of a Collection of Viral RNA-Binding Molecules” (Pharmaceuticals, 2022).
Counter-ions that a name gives are not always drawn. Like-named read-outs stand apart in the source and are kept apart here.

Key:
[1] = tested on: HIV-1; conditions: cited from earlier work
[2] = tested on: 293T-ACE2 cells; conditions: read-out: SARS-CoV-2 CC50, uninfected, MTT
[3] = tested on: SARS-CoV-2 USA-WA1/2020; assay: microbe, parasite or virus in culture; assay type: cell-based; conditions: 293T-ACE2 cells, MOI 0.25, two days, read-out: SARS-CoV-2 EC50
[4] = tested on: Vero E6 cells; conditions: read-out: SARS-CoV-2 CC50, uninfected, MTT
[5] = tested on: subdomain IIB of the rev recognition element (RRE) of the HIV-1 genomic RNA; conditions: cited from earlier work
[6] = tested on: SCoV2 RNA elements; assay: ligand-based 1H NMR (1D, CPMG, wLOGSY), six RNA elements compared; assay type: binding, SARS-CoV-2; conditions: CSP, LB, CPMG and wLOGSY perturbations; 300 µM compound
Text: We first used ligand-based ^1H NMR experiments to analyze the interaction of the selected compounds with each of the six RNA elements specified above, including one-dimensional, Carr–Purcell–Meiboom–Gill (CPMG) and waterLOGSY (wLOGSY) experiments. These assays detect changes in the ^1H signals of the ligand upon RNA association (Figure 4A), and have been successfully used to evaluate small-molecule binding to RNA motifs, including elements of the SCoV2 genome.
Each ligand (at a concentration of 300 μM) was mixed with a smaller quantity of RNA in an aqueous solution containing 25 mM potassium phosphate (pH 6.2), 150 mM KCl, 3 mM MgCl2, and 10% D2O. RNA–ligand molar ratios of 1:50 and 1:100 were explored (with 6 and 3 μM RNA, respectively). […] The water signal was suppressed from one-dimensional experiments with a watergate sequence. The CPMG experiments were acquired with 100, 200, 300, and 400 ms relaxation delays before acquisition, and water suppression was achieved by presaturation. wLOGSY experiments employed a selective Gaussian 180° pulse at the water frequency and an NOE mixing time of 1.5 s and suppressed the water signal by excitation sculpting. All spectra were acquired in the absence and presence of RNA.
All ligand signals were individually analyzed. For clomiphene citrate, the signals corresponding to cis and trans forms were identified by comparing the spectrum of clomiphene citrate with those of the individual stereoisomers. In CPMG experiments, the binding of the compounds to the different RNA sequences was quantified as 100 minus the percentage of ligand signal area in the +RNA CPMG spectrum relative to the corresponding signal area in the -RNA CPMG spectrum. In wLOGSY experiments, binding was quantified with the LOGSY factor, or % of ligand signal in the difference spectrum between the +RNA and –RNA wLOGSY spectra, relative to the corresponding signal in the one-dimensional -RNA reference spectrum. In one-dimensional experiments, line broadening (LB) was quantified as explained for CPMG spectra.

[7] = tested on: ORF7b RNA; assay: ligand-based 1H NMR (1D, CPMG, wLOGSY); assay type: binding, SARS-CoV-2
[8] = tested on: SCoV2 USA-WA1/2020; assay type: cell-based; conditions: 293T-ACE2, MOI 2, 8-h single cycle; added at +2 h relative to infection
[9] = tested on: ATTL RNA; assay: ligand-based 1H NMR (1D, CPMG, wLOGSY); assay type: binding, SARS-CoV-2
[10] = tested on: 5_SL2+3 RNA; assay: ligand-based 1H NMR (1D, CPMG, wLOGSY); assay type: binding, SARS-CoV-2
[11] = tested on: 3_S2m RNA; assay: ligand-based 1H NMR (1D, CPMG, wLOGSY); assay type: binding, SARS-CoV-2
[12] = tested on: PRF RNA; assay: ligand-based 1H NMR (1D, CPMG, wLOGSY); assay type: binding, SARS-CoV-2
[13] = tested on: 3_SL1+2 RNA; assay type: binding
[14] = tested on: SARS-CoV-2; assay type: cell-based; conditions: 48 h post-infection
[15] = tested on: SARS-CoV-2 USA-WA1/2020; assay: microbe, parasite or virus in culture; assay type: cell-based; conditions: Vero E6 cells, MOI 0.025, two days, read-out: SARS-CoV-2 EC50
[16] = tested on: subdomain IIa of the internal ribosome entry site (IRES) RNA of HCV; parameters: method as in earlier work; conditions: ref 6 (Table S1 list: Martín-Villamil et al. 2022); cited from earlier work
[17] = in vitro; conditions: African green monkey, uninfected Vero E6 cells
[18] = ref 2 (Table S1 list: Prado et al. 2018)
[19] = ref 4 (Table S1 list: Medina-Trillo et al. 2020)
[20] = average of aliphatic protons, RNA:ligand 1:100 (clomiphene) or 1:50 (trim, qz2)
[21] = average of aromatic protons, RNA:ligand 1:100 (clomiphene) or 1:50 (trim, qz2)
[22] = clomiphene citrate peak A, RNA:ligand 1:100
[23] = clomiphene citrate peak B, RNA:ligand 1:100
[24] = clomiphene citrate peak C, RNA:ligand 1:100
[25] = clomiphene citrate peak D, RNA:ligand 1:100
[26] = ref 1 (Table S1 list: Prado et al. 2016)
[27] = Severe acute respiratory syndrome coronavirus 2, Vero C1008, 48 h

N=c1c(S(=O)(=O)c2ccc(Cl)cc2)cc2c(=O)n3ccccc3nc2n1C1CCCCC1 [2b]
Previous target virus activity [1, 18]: yes
Previous target virus activity [1, 19]: no
CC50 [2]: > 20 µM
EC50 [3]: > 10 µM
CC50 [4]: > 20 µM
Previous target RNA binding [5, 18]: yes
Previous target RNA binding [5, 19]: yes

CCN(CC)CCOc1ccc(C(=C(Cl)c2ccccc2)c2ccccc2)cc1 [Clomiphene citrate, reference compound]
RNA binding preference [6]: bound significantly to all of the RNA sequences examined
LB [7, 20]: 68.0%
LB [7, 21]: 67.6%
CPMG variation [7, 22]: 96.3%
LB [7, 22]: 61.5%
CPMG variation [7, 23]: 96.5%
LB [7, 23]: 67.2%
CPMG variation [7, 24]: 92.9%
LB [7, 24]: 71.7%
CPMG variation [7, 25]: 97.5%
LB [7, 25]: 67.6%
nucleocapsid protein expression [8]: strongly inhibited
CPMG variation [9, 20]: 38.5%
LB [9, 20]: 35.1%
LB [9, 21]: 15.9%
CPMG variation [9, 22]: 34.3%
LB [9, 22]: 25.5%
CPMG variation [9, 23]: 38.3%
LB [9, 23]: 67.0%
CPMG variation [9, 24]: 40.8%
LB [9, 24]: 23.9%
CPMG variation [9, 25]: 41.4%
LB [9, 25]: 15.9%
CPMG variation [10, 20]: 23.3%
LB [10, 20]: 0.62%
LB [10, 21]: -1.34%
CPMG variation [10, 22]: 36.0%
LB [10, 22]: 23.4%
CPMG variation [10, 23]: 26.7%
LB [10, 23]: 13.7%
CPMG variation [10, 24]: 14.9%
LB [10, 24]: -17.3%
CPMG variation [10, 25]: 29.0%
LB [10, 25]: -1.34%
CPMG variation [11, 20]: 39.5%
LB [11, 20]: 44.9%
CPMG variation [11, 21]: 40.4%
LB [11, 21]: 37.4%
CPMG variation [11, 22]: 37.1%
LB [11, 22]: 57.5%
CPMG variation [11, 23]: 38.8%
LB [11, 23]: 51.5%
CPMG variation [11, 24]: 40.8%
LB [11, 24]: 35.3%
CPMG variation [11, 25]: 40.4%
LB [11, 25]: 37.4%
LB [12, 20]: 68.7%
LB [12, 21]: 81.7%
CPMG variation [12, 22]: 96.5%
LB [12, 22]: 73.2%
CPMG variation [12, 23]: 93.9%
LB [12, 23]: 82.5%
CPMG variation [12, 24]: 77.1%
LB [12, 24]: 59.6%
CPMG variation [12, 25]: 99.0%
LB [12, 25]: 81.7%
Previous target RNA binding [5, 26]: yes
CPMG variation [13, 20]: 94.5%
LB [13, 20]: 70.7%
LB [13, 21]: 61.4%
CPMG variation [13, 22]: 99.3%
LB [13, 22]: 59.6%
CPMG variation [13, 23]: 97.0%
LB [13, 23]: 89.5%
CPMG variation [13, 24]: 91.5%
LB [13, 24]: 66.9%
CPMG variation [13, 25]: 99.1%
LB [13, 25]: 61.4%
viral titers in supernatants (TCID50) [14]: below the limit of detection

CC(CNc1nc2c(cnn2-c2ccccc2)c(=O)[nH]1)Cn1ccnc1 (stereo not shown) [gn1]
EC50 [15, 27]: > 20 µM
Previous target RNA binding [16]: yes

CCN(CC)CCCC(C)Nc1ccc2ccccc2n1 (stereo not shown) [qn1]
CC50 at 2 days [17]: > 20 µM
EC50 ([3]; Severe acute respiratory syndrome coronavirus 2, 48 h): 0.32 µM
EC50 [15, 27]: 9.4 µM
Previous target RNA binding [16]: yes

Homochlorcyclizine [reference compound]
EC50 [15]: 3.59 µM
CC50 [4]: > 20 µM
Previous target RNA binding [5, 26]: yes
